In brackets after ≈: the same amount, converted by molar mass.
Key:
Staphylococcus aureus [1] = assay: animal or person; conditions: in Mus musculus, po, read-out: PD50
Description: In vivo potency on systemic infection caused by Staphylococcus aureus A9537 after oral administration to mice expressed as median protective dose.

Serratia marcescens = assay: In vitro antibacterial activity against Serratia marcescens A 20019.; assay type: functional
Staphylococcus aureus [2] = assay: In vitro antibacterial activity against Staphylococcus aureus A9537.; assay type: functional
Pseudomonas aeruginosa [3] = assay: In vitro antibacterial activity against Pseudomonas aeruginosa A 9243.; assay type: functional
Enterococcus faecalis = assay: In vitro antibacterial activity against Enterococcus faecalis A9809.; assay type: functional
Klebsiella pneumoniae [4] = assay: In vitro antibacterial activity against Klebsiella pneumoniae A 9664.; assay type: functional
Escherichia coli [5] = assay: In vitro antibacterial activity against Escherichia coli A 15119.; assay type: functional
Morganella morganii = assay: In vitro antibacterial activity against Morganella morganii A 15153.; assay type: functional
Escherichia coli [6] = assay: (§1) In vivo potency on systemic infection caused by after oral administration to mice expressed as median protective dose.; assay type: functional; conditions: read-out: PD50
Pseudomonas aeruginosa [7] = assay: as §1; assay type: functional; conditions: read-out: PD50
Klebsiella pneumoniae [8] = assay: as §1; assay type: functional; conditions: read-out: PD50
Enterococcus faecium = assay: In vitro antibacterial activity against Enterococcus faecium A 24885.; assay type: functional
Enterobacter cloacae = assay: In vitro antibacterial activity against Enterobacter cloacae A 9656.; assay type: functional
Klebsiella pneumoniae [9] = assay: In vivo potency on systemic infection caused by Klebsiella pneumoniae A 9664 after oral administration to mice expressed as median protective dose.; assay type: functional; conditions: read-out: PD50
Escherichia coli [10] = assay: In vivo potency on systemic infection caused by Escherichia coli A 15119 after oral administration to mice expressed as median protective dose.; assay type: functional; conditions: read-out: PD50
Klebsiella pneumoniae [11] = assay: In vivo potency on systemic infection caused by after oral administration to mice expressed as median protective dose perorally; assay type: functional; conditions: read-out: PD50
Escherichia coli [12] = assay: In vivo potency on systemic infection caused Escherichia coli A 15119 by after oral administration to mice expressed as median protective dose.; assay type: functional; conditions: read-out: PD50
in vivo = conditions: mouse, po, 50 mg/kg
[13] = Serratia marcescens, read-out: MIC
[14] = Staphylococcus aureus, read-out: MIC
[15] = Pseudomonas aeruginosa, read-out: MIC
[16] = Enterococcus faecalis, read-out: MIC
[17] = Klebsiella pneumoniae, read-out: MIC
[18] = Escherichia coli, read-out: MIC
[19] = Morganella morganii, read-out: MIC
[20] = Enterococcus faecium, read-out: MIC
[21] = Enterobacter cloacae, read-out: MIC

Structure (SMILES) | MIC (Serratia marcescens; [13]) | MIC (Staphylococcus aureus [2]; [14]) | MIC (Pseudomonas aeruginosa [3]; [15]) | MIC (Enterococcus faecalis; [16]) | MIC (Klebsiella pneumoniae [4]; [17]) | MIC (Escherichia coli [5]; [18]) | MIC (Morganella morganii; [19]) | MIC (Enterococcus faecium; [20]) | MIC (Enterobacter cloacae; [21]) | further results
C[C@H]1CN(c2nc3c(cc2F)c(=O)c(C(=O)O)cn3C(C)(C)C)C[C@H]1N | 0.13 µg/mL (≈ 0.359 µM) | 0.008 µg/mL (≈ 0.0221 µM) | 1 µg/mL (≈ 2.76 µM) | 0.25 µg/mL (≈ 0.69 µM) | 0.5 µg/mL (≈ 1.38 µM) | 0.016 µg/mL (≈ 0.0441 µM) | 0.13 µg/mL (≈ 0.359 µM) | 1 µg/mL (≈ 2.76 µM) | 0.13 µg/mL (≈ 0.359 µM) | ED50 (Staphylococcus aureus [1]): 1 mg/kg; ED50 (Escherichia coli [6]): 1.4 mg/kg; ED50 (Pseudomonas aeruginosa [7]): 4.7 mg/kg; ED50 (Klebsiella pneumoniae [8]): 3.9 mg/kg
C[C@H]1CN(c2nc3c(cc2F)c(=O)c(C(=O)O)cn3C(C)(C)C)C[C@@H]1N | 0.5 µg/mL (≈ 1.38 µM) | 0.015 µg/mL (≈ 0.0414 µM) | 2 µg/mL (≈ 5.52 µM) | 0.25 µg/mL (≈ 0.69 µM) | 0.25 µg/mL (≈ 0.69 µM) | 0.06 µg/mL (≈ 0.166 µM) | 0.25 µg/mL (≈ 0.69 µM) | 4 µg/mL (≈ 11 µM) | 0.03 µg/mL (≈ 0.0828 µM) | 
CC(C)(C)n1cc(C(=O)O)c(=O)c2cc(F)c(N3CC[C@H](N)C3)nc21 | 0.13 µg/mL (≈ 0.373 µM) | 0.0005 µg/mL (≈ 0.00144 µM) | 0.13 µg/mL (≈ 0.373 µM) | 0.03 µg/mL (≈ 0.0861 µM) | 0.03 µg/mL (≈ 0.0861 µM) | 0.015 µg/mL (≈ 0.0431 µM) | 0.13 µg/mL (≈ 0.373 µM) | 0.5 µg/mL (≈ 1.44 µM) | 0.13 µg/mL (≈ 0.373 µM) | ED50 (Klebsiella pneumoniae [9]): 3.5 mg/kg; ED50 (Escherichia coli [10]): 1.2 mg/kg
C[C@@H]1CN(c2nc3c(cc2F)c(=O)c(C(=O)O)cn3C(C)(C)C)C[C@@H]1N | 0.5 µg/mL (≈ 1.38 µM) | 0.015 µg/mL (≈ 0.0414 µM) | 1 µg/mL (≈ 2.76 µM) | 0.5 µg/mL (≈ 1.38 µM) | 0.06 µg/mL (≈ 0.166 µM) | 0.13 µg/mL (≈ 0.359 µM) | 0.5 µg/mL (≈ 1.38 µM) | 4 µg/mL (≈ 11 µM) | 0.03 µg/mL (≈ 0.0828 µM) | 
C[C@@H]1CN(c2nc3c(cc2F)c(=O)c(C(=O)O)cn3C(C)(C)C)C[C@H]1N | 0.25 µg/mL (≈ 0.69 µM) | 0.002 µg/mL (≈ 0.00552 µM) | 0.5 µg/mL (≈ 1.38 µM) | 0.06 µg/mL (≈ 0.166 µM) | 0.03 µg/mL (≈ 0.0828 µM) | 0.016 µg/mL (≈ 0.0441 µM) | 0.25 µg/mL (≈ 0.69 µM) | 0.5 µg/mL (≈ 1.38 µM) | 0.016 µg/mL (≈ 0.0441 µM) | ED50 (Staphylococcus aureus [1]): 1.2 mg/kg; ED50 (Klebsiella pneumoniae [11]): 0.81 mg/kg; ED50 (Escherichia coli [6]): 2.1 mg/kg; ED50 (Pseudomonas aeruginosa [7]): 5.5 mg/kg
C[C@H]1C[C@@H](N)CN1c1nc2c(cc1F)c(=O)c(C(=O)O)cn2C(C)(C)C | 0.5 µg/mL (≈ 1.38 µM) | 0.015 µg/mL (≈ 0.0414 µM) | 2 µg/mL (≈ 5.52 µM) | 0.25 µg/mL (≈ 0.69 µM) | 0.06 µg/mL (≈ 0.166 µM) | 0.03 µg/mL (≈ 0.0828 µM) | 0.5 µg/mL (≈ 1.38 µM) | 2 µg/mL (≈ 5.52 µM) | 0.03 µg/mL (≈ 0.0828 µM) | 
CC1(C)CN(c2nc3c(cc2F)c(=O)c(C(=O)O)cn3C(C)(C)C)C[C@H]1N | 0.5 µg/mL (≈ 1.33 µM) | 0.015 µg/mL (≈ 0.0398 µM) | 2 µg/mL (≈ 5.31 µM) | 0.25 µg/mL (≈ 0.664 µM) | 0.13 µg/mL (≈ 0.345 µM) | 0.06 µg/mL (≈ 0.159 µM) | 0.5 µg/mL (≈ 1.33 µM) | 2 µg/mL (≈ 5.31 µM) | 0.03 µg/mL (≈ 0.0797 µM) | 
C[C@@H]1C[C@H](N)CN1c1nc2c(cc1F)c(=O)c(C(=O)O)cn2C(C)(C)C | 2 µg/mL (≈ 5.52 µM) | 0.13 µg/mL (≈ 0.359 µM) | 8 µg/mL (≈ 22.1 µM) | 0.5 µg/mL (≈ 1.38 µM) | 0.25 µg/mL (≈ 0.69 µM) | 0.25 µg/mL (≈ 0.69 µM) | 2 µg/mL (≈ 5.52 µM) | 2 µg/mL (≈ 5.52 µM) | 0.25 µg/mL (≈ 0.69 µM) | 
CC1(C)CN(c2nc3c(cc2F)c(=O)c(C(=O)O)cn3C(C)(C)C)C[C@@H]1N | 0.25 µg/mL (≈ 0.664 µM) | 0.03 µg/mL (≈ 0.0797 µM) | 4 µg/mL (≈ 10.6 µM) | 4 µg/mL (≈ 10.6 µM) | 0.25 µg/mL (≈ 0.664 µM) | 0.06 µg/mL (≈ 0.159 µM) | 0.25 µg/mL (≈ 0.664 µM) | 4 µg/mL (≈ 10.6 µM) | 0.25 µg/mL (≈ 0.664 µM) | 
CC(C)(C)n1cc(C(=O)O)c(=O)c2cc(F)c(N3CC[C@@H](N)C3)nc21 | 0.25 µg/mL (≈ 0.718 µM) | 0.015 µg/mL (≈ 0.0431 µM) | 0.25 µg/mL (≈ 0.718 µM) | 0.13 µg/mL (≈ 0.373 µM) | 0.13 µg/mL (≈ 0.373 µM) | 0.06 µg/mL (≈ 0.172 µM) | 0.25 µg/mL (≈ 0.718 µM) | 1 µg/mL (≈ 2.87 µM) | 0.06 µg/mL (≈ 0.172 µM) | ED50 (Klebsiella pneumoniae [9]): 4.9 mg/kg; ED50 (Escherichia coli [12]): 4.9 mg/kg
CN(C)[C@H]1CCN(c2nc3c(cc2F)c(=O)c(C(=O)O)cn3C(C)(C)C)C1 | 1 µg/mL (≈ 2.66 µM) | 0.03 µg/mL (≈ 0.0797 µM) | 2 µg/mL (≈ 5.31 µM) | 0.5 µg/mL (≈ 1.33 µM) | 0.06 µg/mL (≈ 0.159 µM) | 0.015 µg/mL (≈ 0.0398 µM) |  | 4 µg/mL (≈ 10.6 µM) | 0.03 µg/mL (≈ 0.0797 µM) | 
CN[C@@H]1CCN(c2nc3c(cc2F)c(=O)c(C(=O)O)cn3C(C)(C)C)C1 | 0.5 µg/mL (≈ 1.38 µM) | 0.03 µg/mL (≈ 0.0828 µM) | 1 µg/mL (≈ 2.76 µM) | 1 µg/mL (≈ 2.76 µM) | 0.13 µg/mL (≈ 0.359 µM) | 0.06 µg/mL (≈ 0.166 µM) | 0.5 µg/mL (≈ 1.38 µM) | 8 µg/mL (≈ 22.1 µM) | 0.13 µg/mL (≈ 0.359 µM) | 
CN(C)C1CCN(c2nc3c(cc2F)c(=O)c(C(=O)O)cn3C(C)(C)C)C1 (stereo not drawn) | 1 µg/mL (≈ 2.66 µM) | 0.03 µg/mL (≈ 0.0797 µM) | 1 µg/mL (≈ 2.66 µM) | 1 µg/mL (≈ 2.66 µM) | 0.13 µg/mL (≈ 0.345 µM) | 0.25 µg/mL (≈ 0.664 µM) | 0.5 µg/mL (≈ 1.33 µM) | 8 µg/mL (≈ 21.3 µM) | 1 µg/mL (≈ 2.66 µM) | 
CN[C@H]1CCN(c2nc3c(cc2F)c(=O)c(C(=O)O)cn3C(C)(C)C)C1 | 0.25 µg/mL (≈ 0.69 µM) | 0.015 µg/mL (≈ 0.0414 µM) | 0.25 µg/mL (≈ 0.69 µM) | 1 µg/mL (≈ 2.76 µM) | 0.06 µg/mL (≈ 0.166 µM) | 0.03 µg/mL (≈ 0.0828 µM) | 0.25 µg/mL (≈ 0.69 µM) | 2 µg/mL (≈ 5.52 µM) | 0.06 µg/mL (≈ 0.166 µM) | ED50 (Staphylococcus aureus [1]): 0.31 mg/kg; ED50 (Escherichia coli [6]): 1.2 mg/kg; ED50 (Pseudomonas aeruginosa [7]): 6.1 mg/kg; ED50 (Klebsiella pneumoniae [8]): 2.6 mg/kg
C[C@@H]1C[C@@H](N)CN1c1nc2c(cc1F)c(=O)c(C(=O)O)cn2C(C)(C)C (stereo in doubt; 67) |  |  |  |  |  |  |  |  |  | MIC (Serratia marcescens): 2 µg/mL (≈ 5.52 µM); MIC (Staphylococcus aureus [2]): 0.13 µg/mL (≈ 0.359 µM); MIC (Pseudomonas aeruginosa [3]): 16 µg/mL (≈ 44.1 µM); MIC (Enterococcus faecalis): 1 µg/mL (≈ 2.76 µM); MIC (Klebsiella pneumoniae [4]): 0.5 µg/mL (≈ 1.38 µM); MIC (Escherichia coli [5]): 0.25 µg/mL (≈ 0.69 µM); MIC (Morganella morganii): 4 µg/mL (≈ 11 µM); MIC (Enterococcus faecium): 8 µg/mL (≈ 22.1 µM); MIC (Enterobacter cloacae): 0.5 µg/mL (≈ 1.38 µM)
C[C@@H]1C[C@@H](N)CN1c1nc2c(cc1F)c(=O)c(C(=O)O)cn2C(C)(C)C (stereo in doubt; 68) |  |  |  |  | 0.5 µg/mL (≈ 1.38 µM) |  |  |  |  | ED50 (Staphylococcus aureus [1]): 0.9 mg/kg; MIC (Serratia marcescens): 0.5 µg/mL (≈ 1.38 µM); MIC (Staphylococcus aureus [2]): 0.002 µg/mL (≈ 0.00552 µM); MIC (Pseudomonas aeruginosa [3]): 0.5 µg/mL (≈ 1.38 µM); MIC (Enterococcus faecalis): 0.03 µg/mL (≈ 0.0828 µM); MIC (Escherichia coli [5]): 0.016 µg/mL (≈ 0.0441 µM); MIC (Morganella morganii): 0.25 µg/mL (≈ 0.69 µM); ED50 (Escherichia coli [6]): 2.6 mg/kg; ED50 (Pseudomonas aeruginosa [7]): 14.4 mg/kg; ED50 (Klebsiella pneumoniae [8]): 8.2 mg/kg; MIC (Enterococcus faecium): 0.5 µg/mL (≈ 1.38 µM); MIC (Enterobacter cloacae): 0.13 µg/mL (≈ 0.359 µM)
O=C(O)c1cn(C2CC2)c2cc(N3CCNCC3)c(F)cc2c1=O [CIPROFLOXACIN] | 0.03 µg/mL (≈ 0.0905 µM) | 0.06 µg/mL (≈ 0.181 µM) |  |  | 0.06 µg/mL (≈ 0.181 µM) |  | 0.06 µg/mL (≈ 0.181 µM) | 4 µg/mL (≈ 12.1 µM) |  | ED50 (Staphylococcus aureus [1]): 4 mg/kg; Cmax (in vivo): 5900 ng/mL; ED50 (Escherichia coli [6]): 0.7 mg/kg; ED50 (Pseudomonas aeruginosa [7]): 5 mg/kg; ED50 (Klebsiella pneumoniae [8]): 1.5 mg/kg
